In PubChem BioAssay (NCI):
Values joined by “and” are separate entries in the source; they are usually repeats but may differ in a detail not shown here. Equal values may be shown once.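 96-well plates; 48 h exposure; 5 concentrations. Endpoints by linear interpolation between flanking doses. Not reached: highest tested concentration assigned. Here, GI50 denotes the concentration required for 50% inhibition of growth. TGI: concentration producing complete growth inhibition.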

Columns and labels:
Assay in all cases: DTP human tumour cell line panel, 48 h
[1] = test system: SK-MEL-28 melanoma
[2] = test system: HCC-2998 colon
[3] = test system: HCT-15 colon
[4] = test system: DU-145 prostate
[5] = test system: SK-OV-3 ovarian
[6] = test system: TK-10 renal
[7] = test system: OVCAR-4 ovarian
[8] = test system: MDA-MB-435

Compound	GI50 [1]	TGI [1] [µM]	GI50 [2]	TGI [2] [µM]	GI50 [3]	TGI [3] [µM]	GI50 [4]	TGI [4] [µM]	GI50 [5]	TGI [5] [µM]	GI50 [6]	TGI [6] [µM]	GI50 [7]	TGI [7] [µM]	GI50 [8]	TGI [8] [µM]
C=CC(=O)Nc1cccc(Oc2nc(Nc3ccc(N4CCN(C)CC4)cc3OC)ncc2Cl)c1	2.02 µM	4.07	1.72 µM	3.35	2.59 µM	10.7	1.59 µM	6.07	0.342 µM	5.33	0.513 µM	1.86	2.36 µM	> 39.4	1.7 µM	3.24
CCNCCNc1cc(-c2ccc(C(F)(F)F)cc2)c(C#N)c2nc3cc(Cl)c(Cl)cc3n12	1.4 µM	2.89	2.34 µM	4.14	0.289 µM	0.935	1.7 µM	3.13	2.01 µM	3.45	2.38 µM	3.87	1.41 µM	3.14	1.65 µM	3.16
CN(C)C=Nc1c(I)cc(I)c(CCC(=O)O)c1I	> 100 µM	> 100	> 100 µM	> 100	> 100 µM	> 100	> 100 µM	> 100	> 100 µM	> 100	> 100 µM	> 100	> 100 µM	> 100	> 100 µM	> 100
CN(C)CCS(=O)(=O)Nc1cc(-c2ccc3ncc(C#N)c(Nc4ccc(F)c(Cl)c4)c3c2)cnc1Cl	0.176 µM	1.28	0.198 µM	0.393			0.293 µM	2.11	0.299 µM	1.79	0.155 µM	0.762	0.382 µM	10.3	0.374 µM	3
CCCN(CCC)c1ccc(C=O)c(C)c1	68.2 µM	> 100	52.4 µM	> 100	41.6 µM	> 100	77.6 µM	> 100	> 100 µM	> 100	41.6 µM	> 100	21.5 µM	> 100	32.6 µM	> 100
O=C1c2c(Cl)c(Cl)c(Cl)c(Cl)c2C(=O)C2(Cl)CC=CCC12Cl (centres undefined)	1.8 µM	3.28	1.78 µM	3.3	1.19 µM	2.83	1.93 µM	3.36	2.92 µM	10.9	2.06 µM	3.57	1.9 µM	3.41	2.06 µM	4.32
Cc1ccc(OCCOCCOCCOCCOCCOc2ccc(C)n(O)c2=S)c(=S)n1O	0.23 µM	> 48.7	0.444 µM	46.9	0.0392 µM	> 100	0.124 µM	> 100	0.0583 µM	> 48	0.0826 µM	> 100	0.0339 µM	49.5	0.186 µM	52.6
CN(C)CCOc1ccccc1NC1=C(Cl)C(=O)C(Nc2ccccc2OCCN(C)C)=C(Cl)C1=O	> 95 µM	> 100	5.74 µM	> 21.6	0.845 µM	2.61	6.64 µM		> 47.7 µM	> 83.1	5.73 µM	12.4	0.473 µM	0.896	9.42 µM	> 40.6
CCCCCCCCCCCCCCCCN(CC)CC	1.91 µM	3.84	1.77 µM	3.3	1.88 µM	3.66	2.79 µM	7.52	3.1 µM	9.8	1.71 µM	3.4	3.31 µM	11.1	1.95 µM	3.86
CC(=O)OCC1OC(n2ncc(=O)[nH]c2=O)C(OC(C)=O)C1OC(C)=O (centres undefined)		> 100		> 100		> 100		> 100		> 100		> 100		> 100		> 100
COc1ccc(NC(=O)c2ccc(NC3=C(Cl)C(=O)N(Cc4ccccc4)C3=O)cc2)c(OC)c1	83.3 µM	> 100	10.1 µM	21.7	20 µM	46.3	28.8 µM	85.7	> 100 µM	> 100	22.8 µM	> 100	61.8 µM	> 100	16.7 µM	48.9
Cc1ccsc1-c1ccc2c(c1)COC2(CCCN(C)C)c1ccc(F)cc1 (centres undefined)	1.76 µM	3.33	1.71 µM	3.25	3.09 µM	10.9	3.17 µM	10.8	8.16 µM	21.9	3.04 µM	12.8	3.27 µM	13	1.68 µM	3.24
O=C1NC(=NCCc2ccccn2)S/C1=C\c1ccc2ncccc2c1	15.4 µM	> 25	> 21.4 µM	> 25	7.2 µM	> 25	11.7 µM	> 25	9.1 µM	> 25	7.33 µM	24.5	14.1 µM	> 25	9.59 µM	> 25
N#CC1=C(N)Oc2c(sc3c(Br)cccc23)C1c1ccc(Cl)cc1 (centres undefined)	1.15 µM	4.45	1.57 µM	6.29	0.403 µM	2.25	0.533 µM	3.29	0.464 µM	11.6	3.47 µM	12.8	1.13 µM	16.1	0.277 µM	1.01
Cc1ccccc1C(C(=O)NC1CCCCC1)N(C(=O)CNc1ccc(C#N)cc1)c1cccc(F)c1 (centres undefined)	32.4 µM	> 100	> 100 µM	> 100	> 100 µM	> 100	64.4 µM	> 100	12.9 µM	52.8	24 µM	71.7	9.34 µM	> 71.6	> 72.4 µM	> 100
C=C1C(=O)C2=CC1CCC(=O)C1(C)CCC(OC(C)=O)C(C)(C)C1CC2O (centres undefined)		> 46.4		4		2.6		13.9		23		26.5		10.8		26

Compound	GI50 [1]	TGI [1] [µM]	GI50 [2]	TGI [2] [µM]	GI50 [3]	TGI [3] [µM]	GI50 [4]	TGI [4] [µM]	GI50 [5]	TGI [5] [µM]	GI50 [6]	TGI [6] [µM]	GI50 [7]	TGI [7] [µM]	GI50 [8]	TGI [8] [µM]
C/C=C(\C)C(=O)O[C@H]1C=CC(=O)O[C@H]1COC(=O)[C@H](C)O	3.53 µM	11.5	14.9 µM	30	3.74 µM	16.2	9.17 µM	22.4	17.6 µM	46.4	10.8 µM	24.3	5.97 µM	21.5	5.74 µM	22.4
O=[N+]([O-])c1ccc2c(c1)C(c1ccccc1Cl)=Nc1c(n[nH]c1-c1cccnc1)N2	> 25 µM	> 25	> 25 µM	> 25	> 25 µM	> 25	> 25 µM	> 25	> 25 µM	> 25	> 25 µM	> 25	> 19.8 µM	> 25	> 25 µM	> 25
CN(C)Cc1c(C(=O)NCCOc2ccc(C(=O)NO)cc2)oc2ccccc12	0.267 µM	2.5	0.22 µM	0.83	1.9 µM	> 35.9	0.225 µM	> 33.6	0.273 µM	2.01	0.185 µM	0.88	0.269 µM	> 71.3	0.174 µM	0.679
Nc1nn(C(=O)Nc2c(F)cccc2F)c2ccccc12	56.3 µM	> 100	95.8 µM	> 100	40.9 µM	> 100	62.3 µM	> 100	> 100 µM	> 100	> 100 µM	> 100	57.8 µM	> 100	54.9 µM	> 100
O=C(O)Cc1ccc(N=Nc2c(O)c(C(=O)O)cc3ccccc23)cc1		> 100		> 100		> 100		> 100		> 100		> 100		> 100		> 100
Cn1c(-c2c(N)n(Cc3ccc(F)cc3)c3nc(C#N)c(C#N)nc23)nc2ccccc21	5.65 µM	29	1.35 µM	3.05	2.05 µM	13.6	3.02 µM	21.6	11 µM	33.8	1.09 µM	3.77	2.3 µM	> 50	1.83 µM	13.3
Cn1c(=O)c(Oc2ccc(F)cc2F)cc2cnc(NC3CCOCC3)nc21	> 25 µM	> 25	> 25 µM	> 25	> 25 µM	> 25	> 25 µM	> 25	> 25 µM	> 25	18.6 µM	> 25	> 25 µM	> 25	> 25 µM	> 25
C=C1C(=O)O[C@H]2[C@H]1CC/C(CNC(=O)/C=C/c1ccccc1F)=C\CC[C@@]1(C)O[C@@H]21	1.95 µM	6.19	1.88 µM	3.59	1.01 µM	2.49	1.03 µM	2.26	13.1 µM	28.3	1.66 µM	3.25	1.66 µM	4.57	1.5 µM	6.34
Cc1c2c(nn1-c1ccc(S(=O)(=O)NC(=S)NC(=O)c3ccccc3)cc1)-c1ccccc1CC2	41.1 µM	> 100	89.2 µM	> 100	39.5 µM	> 100	23.9 µM	> 100	> 100 µM	> 100	28.9 µM	78.5	> 100 µM	> 100	27.9 µM	91.4
CC(C)C(=O)c1c(C(F)(F)F)n([O-])c2ccccc2[n+]1=O	9.06 µM	25.1	1.74 µM	4.04	2.31 µM	> 27.1	1.12 µM	2.54	2.66 µM	> 100	0.59 µM	2.07	4.47 µM	18.8	1.07 µM	3.45
CC1Cc2ccccc2N1C(=O)Cc1nc(N2CCOCC2)cc(=O)[nH]1 (centres undefined)	5.13 µM and 18.5 µM	> 100	18.1 µM and 28.6 µM	> 100	16.1 µM and 27.7 µM	> 100	15.8 µM and 28.1 µM	> 100	4.9 µM and 13.3 µM	> 100	14.5 µM and 32.1 µM	> 100	28.1 µM and 31.4 µM	> 100	20.9 µM and 27.7 µM	> 100
N#Cc1c(N/N=C\c2ccc(Cl)cc2)nc(N)nc1N1CCOCC1	> 100 µM	> 100	22 µM	> 100	26.7 µM	97.3	28.8 µM	> 100	> 100 µM	> 100	40.1 µM	> 100	94.4 µM	> 100	35 µM	> 100
O=[N+]([O-])c1oc2ccc3ccccc3c2c1CCO		3.27		1.24		34.2		> 36.5		5.1		27.7		17.3		3.16
CC(=O)OCCCC#CC#Cc1cccc(=O)o1	23.9 µM	55.8	16.6 µM	33.2	11.7 µM	25.7	11.7 µM	26.8	33.8 µM	> 100	13 µM	26.4	24.9 µM	56.1	16 µM	31.4
COc1ccc(OC)c(/C=C/c2ccnc3ccccc23)c1		20.5		12.9		17.3		13.1		5.1		16		19.6		0.331
NC(N)=Nc1ccc(/C=C2\C=Cc3ccccc32)cc1	4.38 µM	17.9	1.69 µM	3.15	2.13 µM	4.55	2.36 µM	5.03	6.14 µM	22.9	2.02 µM	4.04	2.89 µM	15.1	1.84 µM	3.92
